Experimental data as given in patent publication US20120277265A1, “NOVEL POLYQUINOLINE DERIVATIVES AND THE THERAPEUTIC USE THEREOF” (CENTRE NATIONAL DE LA RECHERCHE SCIENTIFIQUE (C.N.R.S.), priority 2005, published 2012).
Read-outs that look alike come from different tables or passages of the source.

Key:
[1] = Hydrogen peroxide produced by Aβ1-42 in the presence of CuCl2, ascorbate, air and ligand (Amplex Red H2O2/HRP); format: biochemical; conditions: CuCl2 0.4 μM, ascorbate 10 μM, air
[2] = target: T1, copper complexes of Aβ1-42 peptide (Homo sapiens, UniProt P05067); assay: as above; format: biochemical; conditions: for amount of H2O2, 0.2 μM Aβ1-42 Cu/Aβ = 2 / amount of H2O2, 0.5 μM Aβ1-42 Cu/Aβ = 0.75: CuCl2 0.4 μM, ascorbate 10 μM, air
T1 construct: The β-amyloid peptide Aβ1-42 (Aβ1-42) was synthesised, purified (to a purity greater than 95%); made in house; host or cells: chemical peptide synthesis (no expression host)
T1 sequence (P05067 672-713 limits assumed, one chain of several): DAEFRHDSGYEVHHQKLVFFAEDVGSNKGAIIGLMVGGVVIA

[3] = target: T1, copper complexes of Aβ1-42 peptide; assay: Stability of H2O2 during the H2O2 production inhibition experiments (known amount of H2O2 added); format: biochemical; conditions: Aβ1-42 0.2 μM, Cu(II) 0.4 μM, ascorbate 10 μM, ligand 0.4 μM
Method: (§1) The final concentrations are given. The reactions were carried out in the dark in mM sodium phosphate buffer (pH=7.4). Aβ1-42 (0.2 μM) and CuCl2 (0.4 μM) were pre-incubated for 1 hour at 37° C. while stirring at 1,400 rpm in 375 μl of buffer. Then 2 μl of a solution of ligand to be investigated (0.2; 0.4 or 0.8 μM) in DMSO were added. After incubation for a further hour, 2 μl of an aqueous sodium ascorbate solution (10 μM) were added and incubation was continued for 5 min while stirring. The amount of H2O2 produced is then quantified using an Amplex Red H2O2/HRP Assay Kit (Molecular Probes) while adding a volume of assay reagent to the samples, then incubating them for 1 hour at 37° C. while stirring at 500 rpm. H2O2 is then detected by spectrophotometry at 563 nm. Quantification is carried out on the basis of standard curves obtained with known amounts of H2O2.
(§2) Experiments were also carried out in the presence of a known amount of H2O2, added just before or just after the addition of sodium ascorbate, in order to investigate the stability of H2O2 under the experimental conditions employed.

[4] = test system: copper complexes of Aβ1-42 peptide; assay: as above; format: biochemical; conditions: for theoretical value of H2O2 if there is no degradation (in parentheses): ascorbate, ligand; for H2O2 assayed: no Aβ1-42, Cu(II) 0.4 μM, ligand 0.4 μM
Method: as §1, §2

[5] = Number of ZnCl2 equivalents for the ligand to be entirely in the form of Zn(II) complex; format: binding; conditions: competition with the tris buffer and the DMSO
[6] = test system: Salmonella tiphimurium TA98; assay: AMES test, TA98
From the text: (§3) AMES test: The method is adapted from D. M. Maron and B. N. Ames, Mutat.
(§4) The test involves evaluating the potential of the tested molecules to induce mutation which is reverse to the histidine locus of these lines. These two lines were provided by Dr. Bruce N. Ames (University of California, Berkeley, USA). They are resistant to Ampicillin and sensitive to Tetracycline. They are not mutant toward rfa, UvγV and UvγA. The line TA98 (his D3052) contains a mutation of reading phase (GC) whereas the line TA100 (his G46) contains a substitution of base pair (GC).
(§5) The compounds to be tested were dissolved in 100% of DMSO (the solvent) and diluted logarithmically (by a factor of 10) so as to obtain 4 test concentrations of 30,000; 3,000; 300 and 30 μg/ml. Each series of 0.1 ml of stock solution to be tested, 0.1 ml of test line and of culture medium with or without 0.5 ml of enzymatic homogenate (S9) of rat liver microsome were mixed with 2 ml of molten agarose (containing 0.5 mM of histidine and 0.5 mM of biotin). This mixture was placed on the surface of a plate of minimal agarose glucose medium (30 ml for each Petri dish) so as to obtain final concentrations of compound to be tested of 3,000; 300; 30 and 3 μγ/plate. The plates were then incubated at 37° C. for 48 hours. […] The revertant colonies of the test lines were counted using a colony counter (Sigma). […] A compound inducing a number of colonies <50% of cells obtained for the solvent alone was deemed to be toxic for the bacteria tested. All the experiments were carried out in triplicate.

[7] = test system: Salmonella tiphimurium TA100; assay: AMES test, TA100
From the text: as §3, §4, §5

[8] = test system: TA98 and TA100 Salmonella strains; assay: AMES test, statements on both lines; conditions: adapted Ames test, TA98 and/or TA100, absence or presence of S9
From the text: as §3, §4
The compounds to be tested were dissolved in 100% of DMSO (the solvent) and diluted logarithmically (by a factor of 10) so as to obtain 4 test concentrations of 30,000; 3,000; 300 and 30 μg/ml. Each series of 0.1 ml of stock solution to be tested, 0.1 ml of test line and of culture medium with or without 0.5 ml of enzymatic homogenate (S9) of rat liver microsome were mixed with 2 ml of molten agarose (containing 0.5 mM of histidine and 0.5 mM of biotin). This mixture was placed on the surface of a plate of minimal agarose glucose medium (30 ml for each Petri dish) so as to obtain final concentrations of compound to be tested of 3,000; 300; 30 and 3 μγ/plate. The plates were then incubated at 37° C. for 48 hours. […] The revertant colonies of the test lines were counted using a colony counter (Sigma). […]

[9] = 3.0 nanomoles H2O2 added just after ascorbate
[10] = Aβ1-42 0.2 μM, Cu(II), 3.0 nanomoles H2O2 added just after ascorbate
[11] = value per plate, Addition of S9: no
[12] = value per plate, Addition of S9: yes

Row | SMILES | amount of H2O2, without Aβ1-42 ([1]; ligand 1 eq/Cu(II) (0.4 μM)) [nmol] | amount of H2O2, 0.2 μM Aβ1-42 Cu/Aβ = 2 ([2]; ligand 1 eq/Cu(II) (0.4 μM)) [nmol] | amount of H2O2, 0.5 μM Aβ1-42 Cu/Aβ = 0.75 ([2]; ligand 1 eq/Cu(II) (0.4 μM)) [nmol] | H2O2 assayed [3, 9] | H2O2 assayed ([3]; no H2O2 added) [nmol] | theoretical value of H2O2 if there is no degradation (in parentheses) [4, 10] | TA98 Cytotoxicity [6, 11] [µg] | TA98 Cytotoxicity [6, 12] [µg] | TA100 Cytotoxicity [7, 11] [µg] | TA100 Cytotoxicity [7, 12] [µg] | TA98 Mutagenic effect [6, 11] [µg] | TA98 Mutagenic effect [6, 12] [µg] | TA100 Mutagenic effect [7, 12] [µg] | other results
1 | CC(C)(c1ccc2c(Cl)ccc(O)c2n1)c1ccc2c(Cl)ccc(O)c2n1 [Compound 4, 2,2′-(2,2-Propanediyl)-bis(5-chloro-8-hydroxyquinoline)] | 0.12 | 0.37 ± 0.09 | 0.35 | 3.3 nmol | 0.37 ± 0.09 | 3.4 nmol |  |  |  |  |  |  |  | 
2 | O=C(c1ccc2cccc(O)c2n1)c1ccc2cccc(O)c2n1 [Compound 6, Bis(8-hydroxy-2-quinoline)methanone] | 0.82 | 0.86 ± 0.11 |  | 3.6 nmol | 0.87 ± 0.11 | 3.9 nmol |  |  |  |  |  |  |  | 
3 | c1cnc2c(Nc3cccc4cccnc34)cccc2c1 [Compound 12, Bis(8-quinoline)amine] | 0.40 | 0.47 ± 0.09 |  | 1.7 nmol | 0.47 ± 0.09 | 3.4 nmol | >3000 | >3000 | >3000 | >3000 |  |  |  | number of ZnCl2 equivalent for 15 μM of ligand to be entirely in the form of Zn(II) complex [5]: 100 eq ZnCl2; degradation of added H2O2 ([4]; Table 7 conditions): none of the added H2O2 is found again; TA98 Mutagenic effect [6]: >3000 µg; TA100 Mutagenic effect [7]: >3000 µg
4 | CC(C)(c1ccc2cccc(O)c2n1)c1ccc2cccc(O)c2n1 [Compound 3, 2,2′-(2,2-propanediyl)-bis(8-hydroxyquinoline)] | 0.84 | 0.71 ± 0.02 | 0.55 | 3.7 (3.7) nanomoles | 0.71 ± 0.02 | 3.7 (3.7) nanomoles | >3000 | >3000 | >3000 | >3000 | >3000 | >3000 | >3000 | amount of H2O2, without Aβ1-42 ([1]; ligand 0.5 eq/Cu(II)): 2.12 nmol; H2O2 production as a function of the Cu/Aβ1-42 ratio ([2]; FIG. 11, 1 equivalent of ligand per Cu(II) (0.4 μM), Aβ1-42 0.2 to 0.53 μM): virtually inhibit H2O2 production; amount of H2O2, 0.2 μM Aβ1-42 Cu/Aβ = 2 ([2]; ligand 0.5 eq/Cu(II)): 0.94 nmol; amount of H2O2, 0.2 μM Aβ1-42 Cu/Aβ = 2 ([2]; ligand 1.5 eq/Cu(II)): 0.49 nmol; H2O2 assayed ([3]; 3.0 nanomoles H2O2 added just before the ascorbate): 3.8 nmol; theoretical value of H2O2 if there is no degradation (in parentheses) ([4]; Aβ1-42 0.2 μM, Cu(II), 3.0 nanomoles H2O2 added just before the ascorbate): 3.7 nmol; H2O2 assayed ([4]; ascorbate 10 μM, 3.0 nanomoles H2O2 added just after ascorbate): 3.8 (3.8) nanomoles; H2O2 assayed ([4]; ascorbate 10 μM, no H2O2 added): 0.84 nmol; H2O2 assayed ([4]; no ascorbate, 3.0 nanomoles H2O2 added): 3.1 nmol; theoretical value of H2O2 if there is no degradation (in parentheses) ([4]; no Aβ1-42, Cu(II), 3.0 nanomoles H2O2 added just after ascorbate): 3.8 (3.8) nanomoles; TA100 Mutagenic effect [7, 11]: >3000 µg; mutagenic or bactericidal effect [8]: no mutagenic or bactericidal effect
5 | Oc1cccc2ccc(C(F)(F)c3ccc4cccc(O)c4n3)nc12 [Compound 5, 2,2′-(Difluoromethanediyl)-bis(8-hydroxyquinoline)] | 0.39 | 0.55 ± 0.08 |  | 3.4 nmol | 0.55 ± 0.08 | 3.5 nmol | >3000 | >3000 | 300 | >3000 | >3000 | >3000 | >3000 | bactericidal effect ([7]; TA100 line in the absence of S9): ≥ 300 μg/plate
